{"source": "patent US11174248B2", "about": "“Indazolyl-spiro[2.3]hexane-carbonitrile derivatives as LRRK2 inhibitors, pharmaceutical compositions, and uses thereof” (Merck Sharp & Dohme Corp., priority 2017, dated 2021)", "target": "GST-tagged truncated human mutant G2019S LRRK2 (Homo sapiens (Human), UniProt Q5S007, G2019S)", "sequence (Q5S007 970-2527 G2019S)": "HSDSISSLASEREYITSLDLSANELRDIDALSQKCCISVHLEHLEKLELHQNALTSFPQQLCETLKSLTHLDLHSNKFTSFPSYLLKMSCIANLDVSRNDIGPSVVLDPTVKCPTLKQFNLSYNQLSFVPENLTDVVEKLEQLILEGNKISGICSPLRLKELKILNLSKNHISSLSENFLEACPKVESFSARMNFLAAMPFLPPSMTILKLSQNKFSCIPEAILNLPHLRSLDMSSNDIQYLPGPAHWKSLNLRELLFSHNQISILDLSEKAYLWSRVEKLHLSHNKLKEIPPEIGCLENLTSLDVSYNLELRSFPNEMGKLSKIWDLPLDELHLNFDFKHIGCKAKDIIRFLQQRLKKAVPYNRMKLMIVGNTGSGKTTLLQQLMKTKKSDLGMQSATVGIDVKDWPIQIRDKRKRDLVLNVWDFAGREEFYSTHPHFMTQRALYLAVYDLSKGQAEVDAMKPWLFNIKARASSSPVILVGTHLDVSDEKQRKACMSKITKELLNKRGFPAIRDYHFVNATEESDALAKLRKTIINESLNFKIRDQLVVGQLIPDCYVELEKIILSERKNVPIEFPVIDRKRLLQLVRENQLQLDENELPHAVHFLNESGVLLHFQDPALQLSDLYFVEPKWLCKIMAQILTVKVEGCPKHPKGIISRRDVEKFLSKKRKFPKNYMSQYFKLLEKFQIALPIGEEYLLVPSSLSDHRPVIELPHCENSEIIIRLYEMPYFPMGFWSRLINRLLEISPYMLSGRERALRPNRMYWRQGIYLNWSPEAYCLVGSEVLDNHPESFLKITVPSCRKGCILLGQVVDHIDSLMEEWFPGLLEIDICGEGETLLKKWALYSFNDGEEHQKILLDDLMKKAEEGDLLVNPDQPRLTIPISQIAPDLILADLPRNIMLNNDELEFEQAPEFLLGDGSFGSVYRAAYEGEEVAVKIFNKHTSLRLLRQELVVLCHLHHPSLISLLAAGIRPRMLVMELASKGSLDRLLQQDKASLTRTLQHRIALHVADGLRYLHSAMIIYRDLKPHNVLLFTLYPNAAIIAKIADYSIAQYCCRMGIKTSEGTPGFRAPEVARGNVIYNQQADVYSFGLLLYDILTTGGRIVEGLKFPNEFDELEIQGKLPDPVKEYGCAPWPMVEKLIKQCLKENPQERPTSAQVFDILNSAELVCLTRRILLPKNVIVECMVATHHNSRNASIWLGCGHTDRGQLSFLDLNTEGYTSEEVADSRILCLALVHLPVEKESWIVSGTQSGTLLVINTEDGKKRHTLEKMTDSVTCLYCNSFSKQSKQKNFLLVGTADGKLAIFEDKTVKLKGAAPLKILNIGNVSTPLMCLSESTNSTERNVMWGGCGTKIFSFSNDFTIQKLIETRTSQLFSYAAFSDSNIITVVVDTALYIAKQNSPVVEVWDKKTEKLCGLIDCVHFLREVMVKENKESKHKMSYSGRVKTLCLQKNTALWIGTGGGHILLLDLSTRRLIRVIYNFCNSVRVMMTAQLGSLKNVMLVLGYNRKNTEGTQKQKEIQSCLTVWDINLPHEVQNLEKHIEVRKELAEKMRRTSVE", "assay": "LRRK2 Km ATP LanthaScreen Assay", "assay_type": "biochemical", "conditions": "134 μM ATP (Km ATP); fluorescein-labeled LRRKtide substrate; mean IC50 values", "experimental": "Unless otherwise noted, all LRRK2 IC50 data presented in tables refers to the LRRK2 Km ATP LanthaScreen™ Assay that is described in the Biological Assay section.\nBiological Assay: LRRK2 Km ATP LanthaScreen™ Assay\nThe LRRK2 kinase activity reported herein as IC50 values was determined with LanthaScreen™ technology from Life Technologies Corporation (Carlsbad, Calif.) using GST-tagged truncated human mutant G2019S LRRK2 in the presence of the fluorescein-labeled peptide substrate LRRKtide, also from Life Technologies. The data presented for the Km ATP LanthaScreen™ Assay represents mean IC50 values based on several test results and may have reasonable deviations depending on the specific conditions and reagents used. Assays were performed in the presence of 134 μM ATP (Km ATP). Upon completion, the assay was stopped and phosphorylated substrate detected with a terbium (Tb)-labeled anti-pERM antibody (cat. no. PV4898). The compound dose response was prepared by diluting a 10 mM stock of compound to a maximum concentration of 9.99 μM in 100% dimethylsulfoxide followed by custom fold serial dilution in dimethylsulfoxide nine times. Twenty nanoliters of each dilution was spotted via a Labcyte Echo onto a 384-well black-sided plate (Corning 3575) followed by 15 μl of a 1.25 nM enzyme solution in 1× assay buffer (50 mM Tris pH 8.5, 10 mM MgCl2, 0.01% Brij-35, 1 mM EGTA, 2 mM dithiothreitol, 0.05 mM sodium orthovanadate) Following a 15-minute incubation at room temperature, the kinase reaction was started with the addition of 5 μl of 400 nM fluorescein-labeled LRRKtide peptide substrate and 134 μM ATP solution in 1× assay buffer. The reaction was allowed to progress at ambient temperature for 90 minutes. The reaction was then stopped by the addition of 20 μl of TR-FRET Dilution Buffer (Life Technologies, Carlsbad, Calif.) containing 2 nM Tb-labeled anti-phospho LRRKtide antibody and 10 mM EDTA (Life Technologies, Carlsbad, Calif.). After an incubation of 1 hour at room temperature, the plate was read on an EnVision multimode plate reader (Perkin Elmer, Waltham, Mass.) with an excitation wavelength of 337 nm (Laser) and a reading emission at both 520 and 495 nm. Compound IC50s were interpolated from nonlinear regression best fits of the log of the final compound concentration, plotted as a function of the 520/495-nm emission ratio using Activity base. Abase uses a 4 parameter (4P) logistic fit based on the Levenberg-Marquardt algorithm.", "note": "pIC50: −log10 of the molar value.", "data": [{"compound": "N#CC1(c2cc3c(cn2)cnn3-c2cc(N3CCN4CCOC[C@@H]4C3)ncn2)CC2(CC2)C1", "note": "[Example 49, (S)-5-(1-(6-(hexahydropyrazino[2,1-c][1,4]oxazin-8(1H)-yl)pyrimidin-4-yl)-1H-pyrazolo[4,3-c]pyridin-6-yl)spiro[2.3]hexane-5-carbonitrile]", "values": [{"measurement": "pIC50", "result": 8.06}]}]}
